Structures can show the parent of a compound that is named as a salt.
SMILES | melting point
O=C(N[C@H]1CCN(CCc2ccc(C(F)(F)F)cc2)C1)C12CC3CC(CC(C3)C1)C2 (as salt: hydrochloride) (hydrate or solvate) [Example 5, (S)-N-(1-(2-(4-trifluoromethylphenyl)ethyl)pyrrolidin-3-yl)-1-adamantanecarboxamide] | 214 to 215 °C
O=C(N[C@H]1CCN(CCc2cccc(C(F)(F)F)c2)C1)C12CC3CC(CC(C3)C1)C2 (as salt: hydrochloride) (hydrate or solvate) [Example 11, (S)-N-(1-(2-(3-trifluoromethylphenyl)ethyl)pyrrolidin-3-yl)-1-adamantanecarboxamide] | 160 to 163 °C
O=C(N[C@H]1CCN(CCc2ccccc2C(F)(F)F)C1)C12CC3CC(CC(C3)C1)C2 (as salt: hydrochloride) (hydrate or solvate) [Example 12, (S)-N-(1-(2-(2-trifluoromethylphenyl)ethyl)pyrrolidin-3-yl)-1-adamantanecarboxamide] | 127 to 128 °C
O=C(N[C@H]1CCN(CC2Cc3ccccc3C2)C1)C12CC3CC(CC(C3)C1)C2 (as salt: hydrochloride) (hydrate or solvate) [Example 18, (S)-N-(1-((2,3-dihydroinden-2-yl)methyl)pyrrolidin-3-yl)-1-adamantanecarboxamide] | 241 to 243 °C
O=C(N[C@H]1CCN(CC2CCCc3ccccc32)C1)C12CC3CC(CC(C3)C1)C2 (stereo partly drawn) (as salt: hydrochloride) (hydrate or solvate) [Example 20, (S)-N-(1-((1,2,3,4-tetrahydronaphthalen-1-yl)methyl)pyrrolidin-3-yl)-1-adamantanecarboxamide] | 140 to 142 °C
O=C(N[C@H]1CCN(C2Cc3ccccc3C2)C1)C12CC3CC(CC(C3)C1)C2 (as salt: hydrochloride) (hydrate or solvate) [Example 22, (S)-N-(1-(2,3-dihydroinden-2-yl)pyrrolidin-3-yl)-1-adamantanecarboxamide] | 278 to 279 °C
O=C(N[C@H]1CCN(CCc2ccccc2)C1)NC12CC3CC(CC(C3)C1)C2 (as salt: hydrochloride) (hydrate or solvate) [Example 51, (S)-1-(1-adamantyl)-3-(1-(2-phenylethyl)pyrrolidin-3-yl)urea] | 201 to 202 °C
CN(C(=O)C12CC3CC(CC(C3)C1)C2)[C@H]1CCN(CCc2ccc(F)cc2)C1 (as salt: hydrochloride) (hydrate or solvate) [Example 56, (S)-N-methyl-N-(1-(2-(4-fluorophenyl)ethyl)pyrrolidin-3-yl)-1-adamantanecarboxamide] | 253 to 254 °C
O=C(N[C@H]1CCN(CCc2ccc(F)cc2)C1)C(c1ccccc1)c1ccccc1 (as salt: oxalate) (hydrate or solvate) [Example 24, (S)-N-(1-(2-(4-fluorophenyl)ethyl)pyrrolidin-3-yl)diphenylacetamide] | 156 to 158 °C
O=C(N[C@H]1CCN(CCc2ccccc2)C1)C(c1ccccc1)c1ccccc1 (as salt: oxalate) [Example 23, (S)-N-(1-(2-phenylethyl)pyrrolidin-3-yl)diphenylacetamide] | 191 to 192 °C
O=C(N[C@H]1CCN(CCc2ccccc2)C1)C12CC3CC(CC(C3)C1)C2 [Example 1, (S)-N-(1-(2-phenylethyl)pyrrolidin-3-yl)-1-adamantanecarboxamide] | 119 to 121 °C
O=C(N[C@H]1CCN(CCc2ccc(Cl)cc2)C1)C12CC3CC(CC(C3)C1)C2 [Example 3, (S)-N-(1-(2-(4-chlorophenyl)ethyl)pyrrolidin-3-yl)-1-adamantanecarboxamide] | 94 to 95 °C
COc1ccc(CCN2CC[C@H](NC(=O)C34CC5CC(CC(C5)C3)C4)C2)cc1 [Example 4, (S)-N-(1-(2-(4-methoxyphenyl)ethyl)pyrrolidin-3-yl)-1-adamantanecarboxamide] | 81 to 83 °C
N#Cc1ccc(CCN2CC[C@H](NC(=O)C34CC5CC(CC(C5)C3)C4)C2)cc1 [Example 6, (S)-N-(1-(2-(4-cyanophenyl)ethyl)pyrrolidin-3-yl)-1-adamantanecarboxamide] | 104 to 105 °C
O=C(N[C@H]1CCN(CCc2cccc(F)c2)C1)C12CC3CC(CC(C3)C1)C2 [Example 9, (S)-N-(1-(2-(3-fluorophenyl)ethyl)pyrrolidin-3-yl)-1-adamantanecarboxamide] | 87 to 89 °C
O=C(N[C@H]1CCN(CCc2ccccc2F)C1)C12CC3CC(CC(C3)C1)C2 [Example 10, (S)-N-(1-(2-(2-fluorophenyl)ethyl)pyrrolidin-3-yl)-1-adamantanecarboxamide] | 106 to 108 °C
O=C(N[C@H]1CCN(Cc2ccccc2)C1)C12CC3CC(CC(C3)C1)C2 [Example 13, (S)-N-(1-benzylpyrrolidin-3-yl)-1-adamantanecarboxamide] | 130 to 132 °C
O=C(N[C@H]1CCN(CCCc2ccccc2)C1)C12CC3CC(CC(C3)C1)C2 [Example 14, (S)-N-(1-(3-phenylpropyl)pyrrolidin-3-yl)-1-adamantanecarboxamide] | 118 to 120 °C
O=C(N[C@H]1CCN(CCCc2ccc(F)cc2)C1)C12CC3CC(CC(C3)C1)C2 [Example 15, (S)-N-(1-(3-(4-fluorophenyl)propyl)pyrrolidin-3-yl)-1-adamantanecarboxamide] | 114 to 115 °C
O=C(N[C@H]1CCN(CCCc2ccc(Cl)cc2)C1)C12CC3CC(CC(C3)C1)C2 [Example 16, (S)-N-(1-(3-(4-chlorophenyl)propyl)pyrrolidin-3-yl)-1-adamantanecarboxamide] | 117 to 119 °C
O=C(N[C@H]1CCN(CCCCc2ccccc2)C1)C12CC3CC(CC(C3)C1)C2 [Example 17, (S)-N-(1-(4-phenylbutyl)pyrrolidin-3-yl)-1-adamantanecarboxamide] | 82 to 84 °C
O=C(N[C@H]1CCN(CCc2ccc(F)cc2)C1)C(C1CCCCC1)C1CCCCC1 [Example 26, (S)-N-(1-(2-(4-fluorophenyl)ethyl)pyrrolidin-3-yl)dicyclohexylacetamide] | 122 to 124 °C
O=C(Cc1ccccc1C1CCCC1)N[C@H]1CCN(CCc2ccccc2)C1 [Example 27, N-((S)-1-(2-phenylethyl)pyrrolidin-3-yl)-2-cyclopentylphenylacetamide] | 117 to 119 °C
O=C(N[C@H]1CCN(CCc2ccc(F)cc2)C1)C1=c2ccccc2=CC=C2CC=CC=C21 [Example 36, (S)-N-(1-(2-(4-fluorophenyl)ethyl)pyrrolidin-3-yl)dibenzo[a,d]cycloheptene-5-carboxamide] | 127 to 128 °C
O=C(N[C@H]1CCN(CCc2ccc(F)cc2)C1)N(C1CCCCC1)C1CCCCC1 [Example 48, (S)-1,1-dicyclohexyl-3-(1-(2-(4-fluorophenyl)ethyl)pyrrolidin-3-yl)urea] | 97 to 98 °C

Further lines, results first:

melting point | SMILES
252 to 253 °C | CN(C(=O)C12CC3CC(CC(C3)C1)C2)[C@H]1CCN(CCc2cccc(F)c2)C1 (as salt: hydrochloride) (hydrate or solvate) [Example 65, (S)-N-methyl-N-(1-(2-(3-fluorophenyl)ethyl)pyrrolidin-3-yl)-1-adamantanecarboxamide]
264 to 265 °C | CN(C(=O)C12CC3CC(CC(C3)C1)C2)[C@@H]1CCN(CCc2ccc(F)cc2)C1 (as salt: hydrochloride) (hydrate or solvate) [Example 68, (R)-N-methyl-N-(1-(2-(4-fluorophenyl)ethyl)pyrrolidin-3-yl)-1-adamantanecarboxamide]
110 to 113 °C (dec.) | O=C(NC1CCN(CCc2ccc(F)cc2)C1)N1CC2CC3CC1C[C@@H](C3)C2 (stereo partly drawn) (as salt: hydrochloride) (hydrate or solvate) [Example 69, (S)-N-(1-(2-(4-fluorophenyl)ethyl)pyrrolidin-3-yl)-(4-azatricyclo[4.3.1.1(3,8)]undecan-4-yl)carboxamide]
139 to 141 °C | O=C(N[C@H]1CCN(C[C@H](O)c2ccccc2)C1)C12CC3CC(CC(C3)C1)C2 (as salt: hydrochloride) (hydrate or solvate) [Example 70, (S)-N-(1-((R)-2-hydroxy-2-phenylethyl)pyrrolidin-3-yl)-1-adamantanecarboxamide]
149 to 151 °C | O=C(N[C@H]1CCN(C[C@@H](O)c2ccccc2)C1)C12CC3CC(CC(C3)C1)C2 (as salt: hydrochloride) (hydrate or solvate) [Example 71, (S)-N-(1-((S)-2-hydroxy-2-phenylethyl)pyrrolidin-3-yl)-1-adamantanecarboxamide]
241 to 242 °C | CN(C(=O)C12CC3CC(CC(C3)C1)C2)[C@H]1CCN(CCc2ccccc2F)C1 (as salt: hydrochloride) [Example 66, (S)-N-methyl-N-(1-(2-(2-fluorophenyl)ethyl)pyrrolidin-3-yl)-1-adamantanecarboxamide]
118 to 120 °C | O=C(N[C@@H]1CCN(CCc2ccccc2)C1)C12CC3CC(CC(C3)C1)C2 [Example 63, (R)-N-(1-(2-phenylethyl)pyrrolidin-3-yl)-1-adamantanecarboxamide]
107 to 108 °C | O=C(N[C@H]1CCN(CCc2ccc(F)cc2)C1)n1c2ccccc2c2ccccc21 [Example 72, (S)-N-(1-(2-(4-fluorophenyl)ethyl)pyrrolidin-3-yl)carbazole-9-carboxamide]
96 to 98 °C | O=C(N[C@H]1CCN(CCc2ccc(F)cc2)C1)C(c1cccs1)c1cccs1 [Example 73, (S)-2,2-di(2-thienyl)-N-(1-(2-(4-fluorophenyl)ethyl)pyrrolidin-3-yl)acetamide]
107 to 108 °C | O=C(N[C@H]1CCN(CCc2ccc(F)cc2)C1)C(c1ccccc1F)c1ccccc1F [Example 74, (S)-2,2-bis(2-fluorophenyl)-N-(1-(2-(4-fluorophenyl)ethyl)pyrrolidin-3-yl)acetamide]
108 to 110 °C | Cc1ccccc1C(C(=O)N[C@H]1CCN(CCc2ccc(F)cc2)C1)c1ccccc1C [Example 75, (S)-2,2-bis(2-methylphenyl)-N-(1-(2-(4-fluorophenyl)ethyl)pyrrolidin-3-yl)acetamide]
